“Also recorded” adds a separate entry of the source.
How the values were obtained:
CXCR4 [1] = molecular target: T1, CXCR4 (Homo sapiens, UniProt P61073); assay: cell-based; details: TZM-bl, read-out: Inhibition of cell-associated 4DV3-Biot
HIV-1 IIIB = assay: HIV-1 entry inhibition assay in TZM-bl reporter cells, X4 strain; type: cell-based
CXCR4 [2] = molecular target: T1, CXCR4; assay: Inhibition of CXCR4 mAb-binding to TZM-bl cells; details: serial dilutions in 1 μg/ml CXCR4 mAb, fixed TZM-bl cells, 40 min on ice

T1 sequence (P61073 whole entry): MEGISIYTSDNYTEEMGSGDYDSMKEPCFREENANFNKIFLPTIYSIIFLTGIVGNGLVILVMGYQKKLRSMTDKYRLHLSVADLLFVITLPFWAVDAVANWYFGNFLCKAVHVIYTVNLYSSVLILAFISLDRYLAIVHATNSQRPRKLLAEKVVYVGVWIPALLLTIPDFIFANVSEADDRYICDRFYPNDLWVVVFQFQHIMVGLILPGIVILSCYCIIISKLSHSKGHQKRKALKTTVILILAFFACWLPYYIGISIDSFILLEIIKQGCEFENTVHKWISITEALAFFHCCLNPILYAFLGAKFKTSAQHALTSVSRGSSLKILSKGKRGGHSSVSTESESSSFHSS

For `c1cc(CN2CCCNCCNCCCNCC2)ccc1CN1CCCNCCNCCCNCC1` [AMD3100, bicyclam JM-2987], the inhibition at 20 µM (CXCR4 [1]) was 31%, the inhibition at 200 µM (CXCR4 [1]) was 47% and the IC50 (HIV-1 IIIB; Human immunodeficiency virus 1, IIIB, TZM-bl, read-out: IC50 of HIV-1 entry inhibition, X4 strain HIV-1 IIIB) was 0.415 nM. For the same compound, the “Potency of HIV-1 IIIB entry inhibition relative to 4DV3-FITC” value (HIV-1 IIIB; more potent than 4DV3-FITC, ratio of IC50, TZM-bl cells) was 1000 fold and the “Inhibition of CXCR4 mAb clone 44708 binding to TZM-bl cells, in words” value (CXCR4 [2]) was “poor ability to inhibit mAb binding; also recorded: ineffective at the tested concentrations”.

Reference: article PMC6286870 (European journal of pharmaceutics and biopharmaceutics : …, 2018)
